Assay results as given in patent US8815903B2, “Indole derivative and pharmacologically acceptable salt thereof” (Kissei Pharmaceutical Co., Ltd., priority 2011, dated 2014).

How the values were obtained:
[1] = target: T1, rat EP1 receptor (Rattus norvegicus, UniProt P70597); assay: Test for confirmation of EP1 receptor antagonism (inhibition of PGE2-induced increase in intracellular calcium concentration); type: cell-based; conditions: rat EP1 receptor-expressing COS-1 cells; prostaglandin E2 10 nM; fluorescent calcium indicator, FDSS 7000
T1 construct: expressed in transfected cells
T1 sequence (P70597 1-405): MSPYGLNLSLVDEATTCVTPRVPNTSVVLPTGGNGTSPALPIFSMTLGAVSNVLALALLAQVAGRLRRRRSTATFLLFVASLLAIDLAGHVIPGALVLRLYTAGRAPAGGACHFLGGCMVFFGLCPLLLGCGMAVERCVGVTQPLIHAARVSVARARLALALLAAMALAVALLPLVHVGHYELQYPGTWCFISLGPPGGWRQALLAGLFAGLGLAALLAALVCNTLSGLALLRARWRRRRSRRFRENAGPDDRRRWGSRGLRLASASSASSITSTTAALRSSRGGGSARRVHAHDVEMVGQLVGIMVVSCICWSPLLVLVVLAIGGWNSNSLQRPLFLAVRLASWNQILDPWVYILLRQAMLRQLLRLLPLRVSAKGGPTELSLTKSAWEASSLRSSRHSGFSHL
Outline: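 COS-1 cells seeded at 5×10^4 cells/well in D-MEM with 10% fetal calf serum, then transiently transfected about 2 h later with a rat EP1 expression vector (200 ng/well) via Lipofectamine 2000. Antagonism measured as inhibition of PGE2-induced rise in intracellular calcium.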

[2] = test system: Sulprostone-Induced Bladder Contraction; assay: Inhibitory effect of compound on sulprostone-induced bladder contraction; type: in vivo, rat; conditions: female SD rats, urethane anesthesia, sulprostone 0.3 mg/kg s.c., test agent 1.0 mg/kg intravenously; for Bladder Contraction Inhibition Rate 15 minutes: 15 minutes from administration; for Bladder Contraction Inhibition Rate 60 minutes: 60 minutes from administration
Source text: Inhibitory Effect of Compound on Sulprostone-Induced Bladder Contraction
Female SD rats were used. Under urethane anesthesia (1.25 g/kg, administered subcutaneously), a tracheal cannula (Size 8, HIBIKI) and a femoral vein cannula for administration (23 G needle-equipped PESO) were inserted thereinto. The bladder cannula (PESO) was inserted from the bladder apex. The bladder cannula was connected to a three-way stopcock, and then, one was connected to a pressure transducer and the other was connected to a syringe filled with saline. Saline was injected to the bladder at an injection rate of 3.6 mL/hour and the bladder contraction pressure was recorded at the time of injection with a recorder (RECTI-HORITZ-8K, NEC Corporation). After 10 minutes from stabilization of the bladder contraction pressure during urination, sulprostone was administered subcutaneously (0.3 mg/kg). Then, at the time point when the bladder contraction pressure became constant, a test agent was administered intravenously (1.0 mg/kg). An average bladder contraction pressure during the 10 minute period before administration of sulprostone was taken as a baseline (0%). Further, an average bladder contraction pressure during the 10 minute period directly before administration of the test agent was taken as a maximum bladder contraction pressure (100%). The average bladder contraction pressures were measured during 5 minutes before and after at 15 minutes and 60 minutes from administration of the test agent. The ratio of this measured value to the maximum bladder contraction pressure was calculated by the following equation and taken as an average bladder contraction rate after administration of the test agent: (Average Bladder Contraction Rate after Administration of Test Agent (%))=[(Average Bladder Contraction Pressure after Administration of Test Agent)/(Maximum Bladder Contraction Pressure)]×100 EQUATION 1
In addition, the difference between the maximum bladder contraction rate (100%) and the average bladder contraction rate (%) after administration of the test agent was calculated by the following equation and taken as a bladder contraction inhibition rate of the test agent: (Bladder Contraction Inhibition Rate)=100%−(Average Bladder Contraction Rate after Administration of Test Agent (%)) EQUATION 2

Compound	IC50 [1]	Bladder Contraction Inhibition Rate 15 minutes [2]	Bladder Contraction Inhibition Rate 60 minutes [2]
COc1ccc2c(Cc3cccc(C(=O)NS(C)(=O)=O)n3)c(-c3ccccc3)[nH]c2c1 [Example 2-1, N-Methanesulfonyl-6-(6-methoxy-2-phenyl-1H-indol-3-ylmethyl)pyridine-2-carboxamide]	0.027 µM	68.3%	84.0%
Cc1ccc2c(Cc3cccc(-c4noc(=O)[nH]4)n3)c(-c3ccoc3)[nH]c2c1 [Example 12-11]	0.037 µM	74.9%	46.7%
COc1ccc2c(Cc3cccc(-c4nnn[nH]4)n3)c(C(C)(C)C)[nH]c2c1 [Example 5-7, 2-tert-butyl-6-methoxy-3-[6-(1H-tetrazol-5-yl)pyridin-2-ylmethyl]-1H-indole]	0.02 µM	74.8%	71.0%
